Values quoted from earlier work in EP2408442B1, “PHARMACEUTICAL COMPOSITION PRESENTING ANTI-INFLAMMATORY PROPERTIES” (Bioxtract S.A., priority 2009, dated 2010).

Settings: 42 or 84 mg of oral not formulated curcumin, including metabolised forms (glucuronides or sulfates)

oral bioavailability: not bioavailable at all
SMILES: COc1cc(C=CC(=O)CC(=O)C=Cc2ccc(O)c(OC)c2)ccc1O [curcumin, 1,7-bis(4-hydroxyl-3-methoxyphenyl)-1,6-heptadiene-3,5-dione]
